{"source": "paper PMC6934184", "about": "“Selective DNA-PKcs inhibition extends the therapeutic index of localized radiotherapy and chemotherapy” (The Journal of Clinical Investigation, 2019)", "target": "T1, ACVR2B (Homo sapiens, UniProt Q13705)", "T1 construct": "purchased Thermo Fisher Scientific (Life Technologies) SelectScreen", "T1 sequence (Q13705 19-512)": "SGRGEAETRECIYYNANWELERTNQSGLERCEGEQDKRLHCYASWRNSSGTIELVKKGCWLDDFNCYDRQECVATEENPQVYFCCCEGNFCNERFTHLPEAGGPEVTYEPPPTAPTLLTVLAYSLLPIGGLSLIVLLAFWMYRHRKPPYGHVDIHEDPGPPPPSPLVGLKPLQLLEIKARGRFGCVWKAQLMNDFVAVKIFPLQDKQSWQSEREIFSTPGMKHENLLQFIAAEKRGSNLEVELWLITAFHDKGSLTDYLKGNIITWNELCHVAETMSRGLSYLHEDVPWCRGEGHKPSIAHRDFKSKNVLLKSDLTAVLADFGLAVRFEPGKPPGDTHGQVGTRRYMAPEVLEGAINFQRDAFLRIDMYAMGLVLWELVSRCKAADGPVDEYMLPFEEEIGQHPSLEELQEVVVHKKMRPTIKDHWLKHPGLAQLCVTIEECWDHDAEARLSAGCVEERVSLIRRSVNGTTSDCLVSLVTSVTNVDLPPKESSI", "assay": "SelectScreen LanthaScreen", "assay_type": "binding", "conditions": "1 µM", "in_short": "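SelectScreen broad panel; activity (Z'LYTE, Adapta) plus binding formats. ATP: Km app for CSF1R Z'LYTE; 10 for CAMK1 Adapta. Readout = % per kinase.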", "data": [{"compound": "CN(C(=O)CN1CCOCC1)c1ccc2sc3c(-c4cccc5c(=O)cc(N6CC7CCC(C6)O7)oc45)cccc3c2c1", "note": "[NU5455]", "values": [{"measurement": "% displacement", "result": 15.7, "unit": "%"}]}]}
